From patent publication US20120016009A1, “Optimized Methods For Delivery Of DSRNA Targeting The PCSK9 Gene” (priority 2008, published 2012)
In the oligonucleotide strings, read from the 5' end, every base follows the letter of its sugar. An asterisk marks phosphorothioate; unmarked linkages are phosphodiester. Other units and linkages are bracketed, terminal groups are in braces. A string of capitals states the bases alone. d = 2'-deoxy (DNA); m = 2'-O-methyl; r = 2'-OH (RNA)

Tested on: PCSK9 mRNA
Assay: PCSK9 siRNA screening in HepG2 cells (lipofectamine 2000 transfection, PCSK9 mRNA by Quantigene, normalized to GAP-DH)
Format: cell-based, human
Conditions: for Mean percent remaining mRNA transcript at siRNA concentration/in cell type 30 nM/HepG2: 30 nM siRNA; for Mean percent remaining mRNA transcript at siRNA concentration/in cell type 3 nM/HepG2: 3 nM siRNA
Protocol: HuH-7 cells were obtained from JCRB Cell Bank (Japanese Collection of Research Bioresources) (Shinjuku, Japan, cat. No.: JCRB0403) Cells were cultured in Dulbecco's MEM (Biochrom AG, Berlin, Germany, cat. No. F0435) supplemented to contain 10% fetal calf serum (FCS) (Biochrom AG, Berlin, Germany, cat. No. S0115), Penicillin 100 U/ml, Streptomycin 100 μg/ml (Biochrom AG, Berlin, Germany, cat. No. A2213) and 2 mM L-Glutamin (Biochrom AG, Berlin, Germany, cat. No K0282) at 37° C. in an atmosphere with 5% CO2 in a humidified incubator (Heraeus HERAcell, Kendro Laboratory Products, Langenselbold, Germany) HepG2 and HeLa cells were obtained from American Type Culture Collection (Rockville, Md., cat. No. HB-8065) and cultured in MEM (Gibco Invitrogen, Karlsruhe, Germany, cat. No. 21090-022) supplemented to contain 10% fetal calf serum (FCS) (Biochrom AG, Berlin, Germany, cat. No. S0115), Penicillin 100 U/ml, Streptomycin 100 μg/ml (Biochrom AG, Berlin, Germany, cat. No. A2213), 1× Non Essential Amino Acids (Biochrom AG, Berlin, Germany, cat. No. K-0293), and 1 mM Sodium Pyruvate (Biochrom AG, Berlin, Germany, cat. No. L-0473) at 37° C. in an atmosphere with 5% CO2 in a humidified incubator (Heraeus HERAcell, Kendro Laboratory Products, Langenselbold, Germany).
For transfection with siRNA, HuH7, HepG2, or HeLa cells were seeded at a density of 2.0×10^4 cells/well in 96-well plates and transfected directly. Transfection of siRNA (30 nM for single dose screen) was carried out with lipofectamine 2000 (Invitrogen GmbH, Karlsruhe, Germany, cat. No. 11668-019) as described by the manufacturer.
24 hours after transfection HuH7 and HepG2 cells were lysed and PCSK9 mRNA levels were quantified with the Quantigene Explore Kit (Genosprectra, Dumbarton Circle Fremont, USA, cat. No. QG-000-02) according to the protocol. PCSK9 mRNA levels were normalized to GAP-DH mRNA. For each siRNA eight individual datapoints were collected. siRNA duplexes unrelated to PCSK9 gene were used as control. The activity of a given PCSK9 specific siRNA duplex was expressed as percent PCSK9 mRNA concentration in treated cells relative to PCSK9 mRNA concentration in cells treated with the control siRNA duplex.
Tables 1b and 2b (and FIG. 6A) summarize the results and provide examples of in vitro screens in different cell lines at different doses. Silencing of PCSK9 transcript was expressed as percentage of remaining transcript at a given dose.
Very active sequences are those that have less than 60% of transcript remaining after treatment with a dose less than or equal to 100 nM. Active sequences are those that have less than 90% transcript remaining after treatment with a high dose (100 nM).

AD-9730: PCSK9 siRNA (sense mCmUmCrArGmCmCrArAmCmCmCrGmCmUmCmCrAmCdT*dT; antisense rGrUrGrGrArGrCrGrGrGrUrUrGrGrCrUrGrArGdT*dT)
Mean percent remaining mRNA transcript at siRNA concentration/in cell type 30 nM/HepG2: 85%

AD-9567: PCSK9 siRNA (sense rCrGrCrUrGrUrGrUrGrGrArCrCrUrCrUrUrUrGdT*dT; antisense rCrArArArGrArGrGrUrCrCrArCrArCrArGrCrGdT*dT)
Mean percent remaining mRNA transcript at siRNA concentration/in cell type 30 nM/HepG2: 41%

AD-9624: PCSK9 siRNA (sense rCrGrUrCrArGrCrUrCrCrArGrGrCrGrGrUrCrCdT*dT; antisense rGrGrArCrCrGrCrCrUrGrGrArGrCrUrGrArCrGdT*dT)
Mean percent remaining mRNA transcript at siRNA concentration/in cell type 30 nM/HepG2: 94%

AD-9669: PCSK9 siRNA (sense mCrGmCrGmUrGmCmUmCrArAmCmUrGmCmCrArArGdT*dT; antisense rCrUrUrGrGmCrArGrUrUrGrArGmCrArCrGrCrGdT*dT)
Mean percent remaining mRNA transcript at siRNA concentration/in cell type 30 nM/HepG2: 97%

AD-9667: PCSK9 siRNA (sense rGrGmUrGrArGrGrGmUrGmUmCmUrAmCrGmCmCrAdT*dT; antisense rUrGrGrCrGmUrArGrAmCrArCrCrCrUmCrArCrCdT*dT)
Mean percent remaining mRNA transcript at siRNA concentration/in cell type 30 nM/HepG2: 73%

AD-9531: PCSK9 siRNA (sense rArArArUrCrGrArGrGrGrCrArGrGrGrUrCrArUdT*dT; antisense rArUrGrArCrCrCrUrGrCrCrCrUrCrGrArUrUrUdT*dT)
IC50: 0.53 nM
Mean percent remaining mRNA transcript at siRNA concentration/in cell type 3 nM/HepG2: 32%
Mean percent remaining mRNA transcript at siRNA concentration/in cell type 30 nM/HepG2: 31%

AD-9525: PCSK9 siRNA (sense rGrGrArGrUrUrUrArUrUrCrGrGrArArArArGrCdT*dT; antisense rGrCrUrUrUrUrCrCrGrArArUrArArArCrUrCrCdT*dT)
Mean percent remaining mRNA transcript at siRNA concentration/in cell type 30 nM/HepG2: 53%

AD-9735: PCSK9 siRNA (sense mCrAmCrGrGmUrAmCmCrGrGrGmCrGrGrAmUrGrAdT*dT; antisense rUmCrArUrCrCrGrCrCrCrGrGmUrArCrCrGrUrGdT*dT)
Mean percent remaining mRNA transcript at siRNA concentration/in cell type 30 nM/HepG2: 115%

AD-9604: PCSK9 siRNA (sense rCrUrCrArGrCrCrArArCrCrCrGrCrUrCrCrArCdT*dT; antisense rGrUrGrGrArGrCrGrGrGrUrUrGrGrCrUrGrArGdT*dT)
Mean percent remaining mRNA transcript at siRNA concentration/in cell type 30 nM/HepG2: 49%
Mean percent remaining mRNA transcript at siRNA concentration/in cell type 100 nM/HepG2 (100 nM siRNA): 35%

AD-9754: PCSK9 siRNA (sense mUmUmCmUmCmUrGmCmCrArArArGrAmUrGmUmCrAdT*dT; antisense rUrGrAmCrArUrCrUrUrUrGrGmCrArGrArGrArAdT*dT)
Mean percent remaining mRNA transcript at siRNA concentration/in cell type 30 nM/HepG2: 89%

AD-9688: PCSK9 siRNA (sense mUmCmUmCmCmUrArGrAmCrAmCmCrArGmCrAmUrAdT*dT; antisense mUrArUrGrCrUrGrGrUrGrUrCmUrArGrGrArGrAdT*dT)
IC50: 4.2 nM
Mean percent remaining mRNA transcript at siRNA concentration/in cell type 3 nM/HepG2: 34%
Mean percent remaining mRNA transcript at siRNA concentration/in cell type 30 nM/HepG2: 26%

AD-9323: PCSK9 siRNA (sense rGrGrCrCrUrGrGrArGrUrUrUrArUrUrCrGrGrAdT*dT; antisense rUrCrCrGrArArUrArArArCrUrCrCrArGrGrCrCdT*dT)
Mean percent remaining mRNA transcript at siRNA concentration/in cell type 3 nM/HepG2: 33%
Mean percent remaining mRNA transcript at siRNA concentration/in cell type 30 nM/HepG2: 14%

AD-9575: PCSK9 siRNA (sense rCrCrGrCrUrGrCrCrGrGrCrArArCrUrUrCrCrGdT*dT; antisense rCrGrGrArArGrUrUrGrCrCrGrGrCrArGrCrGrGdT*dT)
Mean percent remaining mRNA transcript at siRNA concentration/in cell type 30 nM/HepG2: 120%

AD-9588: PCSK9 siRNA (sense rGrGrUrCrArCrCrGrCrUrGrCrCrGrGrCrArArCdT*dT; antisense rGrUrUrGrCrCrGrGrCrArGrCrGrGrUrGrArCrCdT*dT)
Mean percent remaining mRNA transcript at siRNA concentration/in cell type 30 nM/HepG2: 66%

AD-9532: PCSK9 siRNA (sense rCrCrGrGrGrCrCrCrArCrArArCrGrCrUrUrUrUdT*dT; antisense rArArArArGrCrGrUrUrGrUrGrGrGrCrCrCrGrGdT*dT)
Mean percent remaining mRNA transcript at siRNA concentration/in cell type 30 nM/HepG2: 100%

AD-9596: PCSK9 siRNA (sense rGrArArGrArUrGrArGrUrGrGrCrGrArCrCrUrGdT*dT; antisense rCrArGrGrUrCrGrCrCrArCrUrCrArUrCrUrUrCdT*dT)
Mean percent remaining mRNA transcript at siRNA concentration/in cell type 30 nM/HepG2: 37%

AD-9645: PCSK9 siRNA (sense mCmCmCrArGmCmCrArGrGrAmUmUmCmCrGmCrGmCdT*dT; antisense rGrCrGrCrGrGrArArUrCrCrUrGrGrCrUrGrGrGdT*dT)
Mean percent remaining mRNA transcript at siRNA concentration/in cell type 30 nM/HepG2: 66%

AD-9689: PCSK9 siRNA (sense mCrGmCmUrGmCmCrGrGmCrArAmCmUmUmCmCrGrGdT*dT; antisense rCrCrGrGrArArGrUrUrGrCrCrGrGmCrArGrCrGdT*dT)
Mean percent remaining mRNA transcript at siRNA concentration/in cell type 30 nM/HepG2: 81%

AD-9552: PCSK9 siRNA (sense rArGrGrArGrCrArUrGrGrArArUrCrCrCrGrGrCdT*dT; antisense rGrCrCrGrGrGrArUrUrCrCrArUrGrCrUrCrCrUdT*dT)
Mean percent remaining mRNA transcript at siRNA concentration/in cell type 30 nM/HepG2: 80%

AD-9614: PCSK9 siRNA (sense rGrGrCrArArCrUrUrCrCrGrGrGrArCrGrArUrGdT*dT; antisense rCrArUrCrGrUrCrCrCrGrGrArArGrUrUrGrCrCdT*dT)
Mean percent remaining mRNA transcript at siRNA concentration/in cell type 30 nM/HepG2: 100%

AD-9706: PCSK9 siRNA (sense mCmCmUrGmCrGmCrGmUrGmCmUmCrArAmCmUrGmCdT*dT; antisense rGmCrArGrUrUrGrArGmCrArCrGrCrGmCrArGrGdT*dT)
Mean percent remaining mRNA transcript at siRNA concentration/in cell type 30 nM/HepG2: 86%

AD-9556: PCSK9 siRNA (sense rUrGrGrUrGrGrArGrGrUrGrUrArUrCrUrCrCrUdT*dT; antisense rArGrGrArGrArUrArCrArCrCrUrCrCrArCrCrAdT*dT)
Mean percent remaining mRNA transcript at siRNA concentration/in cell type 30 nM/HepG2: 46%

AD-9693: PCSK9 siRNA (sense mCrGmCmUrGmUrGmUrGrGrAmCmCmUmCmUmUmUrGdT*dT; antisense mCrArArArGrArGrGrUrCmCrAmCrAmCrArGrCrGdT*dT)
Mean percent remaining mRNA transcript at siRNA concentration/in cell type 30 nM/HepG2: 50%

AD-9676: PCSK9 siRNA (sense rGrArGrGrGmUrGmUmCmUrAmCrGmCmCrAmUmUrGdT*dT; antisense mCrArArUrGrGrCrGmUrArGrAmCrArCrCrCrUrCdT*dT)
Mean percent remaining mRNA transcript at siRNA concentration/in cell type 30 nM/HepG2: 100%

AD-9655: PCSK9 siRNA (sense rGrGrGrAmUrAmCmCmUmCrAmCmCrArArGrAmUmCdT*dT; antisense rGrArUrCrUrUrGrGrUrGrArGrGmUrArUrCrCrCdT*dT)
Mean percent remaining mRNA transcript at siRNA concentration/in cell type 30 nM/HepG2: 140%

AD-9718: PCSK9 siRNA (sense mCmCmUrArGrAmCrAmCmCrArGmCrAmUrAmCrArGdT*dT; antisense rCrUrGmUrArUrGrCrUrGrGrUrGrUrCmUrArGrGdT*dT)
Mean percent remaining mRNA transcript at siRNA concentration/in cell type 30 nM/HepG2: 78%

AD-9559: PCSK9 siRNA (sense rGrUrGrArCrCrArCrCrGrGrGrArArArUrCrGrAdT*dT; antisense rUrCrGrArUrUrUrCrCrCrGrGrUrGrGrUrCrArCdT*dT)
Mean percent remaining mRNA transcript at siRNA concentration/in cell type 30 nM/HepG2: 35%

AD-9687: PCSK9 siRNA (sense rGrAmCrAmCmCrArGmCrAmUrAmCrArGrArGmUrGdT*dT; antisense mCrArCrUrCrUrGmUrArUrGrCrUrGrGrUrGrUrCdT*dT)
Mean percent remaining mRNA transcript at siRNA concentration/in cell type 30 nM/HepG2: 84%

AD-9551: PCSK9 siRNA (sense UGGCGGGUGGGUACAGCCGTsT; antisense CGGCUGUACCCACCCGCCATsT; as printed in the source, key not given here)
Mean percent remaining mRNA transcript at siRNA concentration/in cell type 30 nM/HepG2: 91%

AD-9672: PCSK9 siRNA (sense mUrArGmCmCmUmUrGmCrGmUmUmCmCrGrArGrGrAdT*dT; antisense rUrCrCrUrCrGrGrArArCrGmCrArArGrGrCmUrAdT*dT)
Mean percent remaining mRNA transcript at siRNA concentration/in cell type 30 nM/HepG2: 57%

AD-9548: PCSK9 siRNA (sense rGrCrArGrUrCrArGrArGrCrGrCrArCrUrGrCrCdT*dT; antisense rGrGrCrArGrUrGrCrGrCrUrCrUrGrArCrUrGrCdT*dT)
Mean percent remaining mRNA transcript at siRNA concentration/in cell type 3 nM/HepG2: 60%
Mean percent remaining mRNA transcript at siRNA concentration/in cell type 30 nM/HepG2: 54%
